Results: US5612337A, “Substituted morpholine derivatives and their use as therapeutic agents” (Merck Sharp & Dohme Limited, priority 1993, dated 1997)

Assay: stability of crystals of the hydrochloride salt
Type: physicochemical
Method: Dimethylamine (approximately 10 ml) was condensed at -80° C. in a pressure tube and to this was added a solution of N-(4-azidobut-2-ynyl)-2-(R)-(1-(R)-(3,5-bis(trifluoromethyl) phenyl)ethoxy)-3-(S)-(4-fluorophenyl)morpholine (3.2 g) in dioxan (15 ml). The tube was sealed and the solution was heated at 90° C. for 16 h. The solution was evaporated to dryness and the residue chromatographed on silica gel (eluting with 5% methanol in dichloromethane containing 0.25% ammonia (SG. 0.88)) and the fractions containing the desired product were evaporated in vacuo to give the title compound. To a solution of this residue in diethyl ether was added 1M-HCl in methanol. The solution was evaporated to dryness and redissolved in diethyl ether to give crystals of the title compound hydrochloride salt m.p. 194°-198° C., [α]^22D +65.0° (C=0.5, H2 O).

Measured: stability of crystals

C[C@@H](O[C@H]1OCCN(Cc2nn[nH]c2CN(C)C)[C@H]1c1ccc(F)cc1)c1cc(C(F)(F)F)cc(C(F)(F)F)c1 [Example 12]
stable for at least five days: at 40° C. | at 40° C./75% relative humidity | at 80° C. | at 2000LUX
